From ChEMBL document CHEMBL1130242, “3 Beta-(4-ethyl-3-iodophenyl)nortropane-2 beta-carboxylic acid methyl ester as a high-affinity selective ligand for the serotonin transporter” (J Med Chem, 1997)

Experiments:
[1] = target: Sodium-dependent dopamine transporter (Rattus norvegicus, UniProt P23977); assay: In vitro inhibitory activity against radioligand [3H]-[…] binding to dopamine transporter (DAT) in rat striatal tissue; type: tissue-based, Striatum
[2] = target: Norepinephrine transporter (Rattus norvegicus, UniProt Q9WTR4); assay: In vitro inhibitory activity against radioligand [3H]-[…] binding to norepinephrine transporter (NET) in rat cortical tissue
[3] = target: Monoamine transporters; serotonin & dopamine (Rattus norvegicus) (UniProt P31652+P23977); assay: Selectivity ratio is IC50 value of 5-HTT to that of DAT; type: protein assay
[4] = target: Monoamine transporters; Norepininephrine & dopamine (Rattus norvegicus) (UniProt P23977+Q9WTR4); assay: Selectivity ratio is IC50 value of NET to that of DAT; type: protein assay
[5] = target: Sodium-dependent serotonin transporter (Rattus norvegicus, UniProt P31652); assay: In vitro inhibitory activity against radioligand [3H]paroxetine binding to serotonin transporter (5-HTT) in rat midbrain tissue; type: tissue-based
Sequence of Sodium-dependent serotonin transporter (P31652 whole entry): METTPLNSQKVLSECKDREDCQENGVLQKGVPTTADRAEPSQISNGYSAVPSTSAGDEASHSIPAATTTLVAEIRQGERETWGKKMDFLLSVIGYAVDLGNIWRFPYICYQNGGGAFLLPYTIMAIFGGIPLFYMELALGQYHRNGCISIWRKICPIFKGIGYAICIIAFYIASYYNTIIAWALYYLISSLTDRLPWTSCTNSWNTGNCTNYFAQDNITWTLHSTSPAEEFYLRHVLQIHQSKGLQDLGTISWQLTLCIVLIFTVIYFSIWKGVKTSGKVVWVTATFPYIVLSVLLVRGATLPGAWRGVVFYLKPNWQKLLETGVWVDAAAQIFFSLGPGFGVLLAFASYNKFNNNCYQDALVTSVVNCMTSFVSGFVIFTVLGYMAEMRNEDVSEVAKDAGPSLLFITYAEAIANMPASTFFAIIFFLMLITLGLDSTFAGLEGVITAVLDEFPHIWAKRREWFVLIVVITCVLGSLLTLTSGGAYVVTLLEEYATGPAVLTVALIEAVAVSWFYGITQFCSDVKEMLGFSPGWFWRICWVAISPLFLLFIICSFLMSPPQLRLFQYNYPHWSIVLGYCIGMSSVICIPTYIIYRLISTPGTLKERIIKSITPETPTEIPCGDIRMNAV

Sequence of Norepinephrine transporter (Q9WTR4 whole entry): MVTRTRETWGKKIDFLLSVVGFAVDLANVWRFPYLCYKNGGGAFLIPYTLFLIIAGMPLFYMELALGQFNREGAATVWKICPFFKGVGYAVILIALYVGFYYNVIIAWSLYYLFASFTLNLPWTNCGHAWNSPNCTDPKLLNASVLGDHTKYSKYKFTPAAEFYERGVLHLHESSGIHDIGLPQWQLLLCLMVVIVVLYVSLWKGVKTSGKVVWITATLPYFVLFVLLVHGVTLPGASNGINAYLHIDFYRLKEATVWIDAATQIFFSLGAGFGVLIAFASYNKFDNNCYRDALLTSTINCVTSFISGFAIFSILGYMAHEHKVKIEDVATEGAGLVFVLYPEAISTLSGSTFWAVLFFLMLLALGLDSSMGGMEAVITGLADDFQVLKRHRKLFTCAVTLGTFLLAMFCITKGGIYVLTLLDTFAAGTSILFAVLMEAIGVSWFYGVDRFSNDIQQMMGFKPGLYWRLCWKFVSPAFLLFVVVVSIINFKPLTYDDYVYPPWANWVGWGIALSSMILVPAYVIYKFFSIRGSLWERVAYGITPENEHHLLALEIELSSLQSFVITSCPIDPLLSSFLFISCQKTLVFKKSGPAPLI
Sequence of Monoamine transporters; serotonin & dopamine (Rattus norvegicus) (P23977 whole entry, looked up): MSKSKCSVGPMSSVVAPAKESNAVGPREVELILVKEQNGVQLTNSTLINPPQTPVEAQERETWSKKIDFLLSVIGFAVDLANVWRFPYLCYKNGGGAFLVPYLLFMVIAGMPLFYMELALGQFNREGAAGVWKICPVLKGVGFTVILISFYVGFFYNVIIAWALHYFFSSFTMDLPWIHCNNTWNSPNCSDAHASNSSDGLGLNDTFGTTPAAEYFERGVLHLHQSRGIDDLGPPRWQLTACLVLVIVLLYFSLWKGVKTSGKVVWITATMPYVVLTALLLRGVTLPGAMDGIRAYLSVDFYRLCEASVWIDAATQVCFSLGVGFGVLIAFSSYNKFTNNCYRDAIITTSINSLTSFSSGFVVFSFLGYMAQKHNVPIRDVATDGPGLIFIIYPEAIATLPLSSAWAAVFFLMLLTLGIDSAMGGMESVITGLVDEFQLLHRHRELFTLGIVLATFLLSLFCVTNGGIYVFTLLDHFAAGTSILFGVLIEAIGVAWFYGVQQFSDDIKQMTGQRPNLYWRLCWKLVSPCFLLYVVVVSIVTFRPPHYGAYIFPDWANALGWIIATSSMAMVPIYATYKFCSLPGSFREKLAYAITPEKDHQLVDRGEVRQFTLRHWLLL
Sequence of Monoamine transporters; serotonin & dopamine (Rattus norvegicus) (P31652 whole entry, looked up): as the sequence (P31652 whole entry) above
Sequence of Sodium-dependent dopamine transporter (P23977 whole entry): as the sequence (P23977 whole entry, looked up) above

Structure (SMILES): CCc1ccc(C2CC3CC[C@@H](N3)C2C(=O)OC)cc1I (some centres undefined)
- IC50 [1]: 329 nM
- IC50 [2]: 148 nM
- Ratio [3]: 87
- Ratio [4]: 40

Structure (SMILES): CCc1ccc(C2CC3CC[C@@H](N3)C2C(=O)OC)cc1 (some centres undefined)
- Ratio [3]: 0.2
- Ratio [4]: 2.5

Structure (SMILES): COC(=O)C1C(c2ccc(Cl)cc2)CC2CC[C@H]1N2 (some centres undefined)
- IC50 [1]: 0.62 nM
- IC50 [2]: 4.13 nM
- IC50 [5]: 5.45 nM
- Ratio [3]: 9
- Ratio [4]: 7

Structure (SMILES): CCc1ccc(C2CC3CC[C@H](C2C(=O)OC)N3C)cc1 (some centres undefined)
- IC50 [2]: 39 nM
- Ratio [3]: 0.52
- Ratio [4]: 71

Structure (SMILES): COC(=O)C1C(c2cccc(I)c2)CC2CC[C@H]1N2C (some centres undefined)
- IC50 [1]: 26 nM
- IC50 [2]: 1590 nM
- IC50 [5]: 38.8 nM
- Ratio [3]: 1.5
- Ratio [4]: 61
